Measured values as given in paper PMC7462607 (eLife, 2020).
pEC50, pIC50: −log10 of the molar value. “And” between values parts separate entries of the source, which are not always exact repeats. Equal values may be shown once.

What was measured:
CCNK = assay: In vivo polyubiquitination of CCNK (HEK293T); type: cell-based, Homo sapiens; settings: wild-type CDK12 co-expressed
Description: Wild-type and G731E/R ORFs of 3 × FLAG-CDK12, either full length or the kinase domain (from resides 715–1052), were cloned into the pCDNA3.1-N-3xFLAG vector. An ORF encoding CCNK (NM_001099402.2) was PCR amplified with A549 cDNA and cloned into a pCDNA3.1-C-3xHA vector. pCMV-8 ×His Ub was a gift from Dr. William Kaelin at Dana Farber Cancer Institute of Harvard. To set up cells for the in vivo ubiquitination assay, 0.6 million HEK293T cells were seeded per well in six-well tissue-culture plates. After overnight attachment, these cells were transfected with 500 ng of pCMV 8 × His Ub, 25 ng of pCDNA3.1-CCNK-3xHA, and 50 ng of pCDNA3.1-3xFLAG-CDK12. Two days later, cells were pretreated with 1 µM of bortezomib for 2 hr, followed by treatment with DMSO or three doses of HQ461 (1, 3, 10 µM) for 4 hr. Cells from each well were rinsed once with DPBS and lysed in 500 μL of buffer 1 (25 mM Tris-HCl, pH 8.0, 8 M urea, 10 mM imidazole) freshly supplemented with one units/µL of benzonase and 1x cOmplete, Mini, EDTA-free protease inhibitor cocktail (Roche, Bazel, Switzerland). Lysates were clarified by spinning at 15,000 xg at 4°C for 10 min. Clarified lysate of each sample was mixed with 10 µL of Ni NTA magarose beads (SMART Life Sciences, Changzhou, China, SM00801) prewashed with lysis buffer. […]

[1] = molecular target: T1, FLAG-Avi-DDB1 and His-CDK12KD/His-CCNKΔC (WT) (Homo sapiens, UniProt Q9NYV4); assay: AlphaScreen assay, WT; type: binding; settings: for AlphaScreen: raw signal
T1 construct: Human CDK12KD (residues 715–1052); made in house; host or cells: Sf9 or High Five (CDK12KD/CCNKΔC, co-infected with yeast CAK1); 293F with BirA (FLAG-Avi-DDB1)
Description: (§1) Biotinylated FLAG-Avi-DDB1 (3 µM) and 6xHis-CDK12KD/6xHis-CCNKΔC (WT or G731E/R mutants) (3 µM) were mixed in an assay buffer (50 mM HEPES, pH7.5, 300 mM NaCl, 0.5 mM TCEP, 0.1% NP-40, 0.1% BSA) and a serial dilution of HQ461.The protein-compound mix was transferred to 384-well plates (Corning, Corning, USA); 15 μL per well. After a 1 hr room temperature incubation, 10 µL of nickel chelate (Ni-NTA) acceptor beads (PerkinElmer, Waltham, USA, Waltham, USA, 6760619C) (1:100 diluted with assay buffer) was added per well. After incubation in the dark for 1 hr at room temperature, 10 μL of streptavidin donor beads (PerkinElmer, Waltham, USA, 6760619C) (1:100 diluted in assay buffer) was added per well. After another 1 hr incubation, AlphaScreen signal was measured on the EnVision multimode plate reader (PerkinElmer, Waltham, USA). For THZ531 competition, FLAG-Avi-DDB1, 6xHis-CDK12KD/6xHis-CCNKΔC mix was preincubated with 5 μM of THZ531 for 30 min on ice followed by the procedures described above.

[2] = molecular target: T2, FLAG-Avi-DDB1 and His-CDK12KD G731R/His-CCNKΔC (Homo sapiens, UniProt Q9NYV4, G731R); assay: AlphaScreen assay, G731R; type: binding; settings: for AlphaScreen: G731R, raw signal
T2 construct: Human CDK12KD (residues 715–1052); made in house; host or cells: Sf9 or High Five (CDK12KD/CCNKΔC, co-infected with yeast CAK1); 293F with BirA (FLAG-Avi-DDB1)
Description: as §1

[3] = system: CDK12 G731E or G731R knock-in A549 cells; assay: Cell viability assay, CDK12 G731E or G731R knock-in A549 cells; type: cell-based; settings: Homo sapiens, four knock-in clones
Description: Seven hundred A549 cells or 1,000 HCT-116 cells in 50 µL of medium were plated per well in 384-well flat clear bottom white polystyrene TC-treated microplates (Corning, Corning, USA). After overnight attachment, cells were dosed with a serial dilution of HQ461 with a D300e digital dispenser (Tecan, Männedorf, Switzerland). Cell survival was measured 72 hr later using CellTiter-Glo luminescent cell viability assay kit (Promega, Madison, USA) following vendor instructions. Luminescence was recorded by EnVison multimode plate reader (PerkinElmer, Waltham, USA). IC50 was determined with GraphPad Prism using baseline correction (by normalizing to DMSO control), the asymmetric (five parameter) equation, and least squares fit.
An sgRNA targeting CDK12 (5’-[…]-3’) was cloned into the pSpCas9(BB)−2A-eGFP (PX458) vector (Addgene 48138). For CDK12 G731E/R knock-in, 1 million A549 cells were nucleofected (using 4D-Nucleofector, Lonza, Basel, Switzerland) with PX458-sgCDK12 and single-stranded oligodeoxynucleotides (G731E: 5’-ttatatacttggccataggttccttctccaataatTTCaataatgtcaaacttgtccacacagcgtttcccccagtc-3’; G731R: 5’-ttatatacttggccataggttccttctccaataatGCGaataatgtcaaacttgtccacacagcgtttcccccagtc-3’). Afterwards, cells were exposed to 5 µM 0461 for 2 weeks to select for cells with CDK12 G731E/R knock-in. […]

T1 sequence (Q9NYV4 715-1052 limits assumed, stated change not applied): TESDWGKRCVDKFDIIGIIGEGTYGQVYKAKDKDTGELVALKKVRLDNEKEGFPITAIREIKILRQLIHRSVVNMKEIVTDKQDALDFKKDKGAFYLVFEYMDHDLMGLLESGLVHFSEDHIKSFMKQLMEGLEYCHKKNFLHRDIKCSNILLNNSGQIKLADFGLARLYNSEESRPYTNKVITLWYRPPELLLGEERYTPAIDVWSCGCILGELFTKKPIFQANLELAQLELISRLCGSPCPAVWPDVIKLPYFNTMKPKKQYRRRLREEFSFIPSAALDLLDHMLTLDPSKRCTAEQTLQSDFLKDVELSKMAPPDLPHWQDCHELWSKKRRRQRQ
T1 sequence (O75909 11-267 partner limits assumed): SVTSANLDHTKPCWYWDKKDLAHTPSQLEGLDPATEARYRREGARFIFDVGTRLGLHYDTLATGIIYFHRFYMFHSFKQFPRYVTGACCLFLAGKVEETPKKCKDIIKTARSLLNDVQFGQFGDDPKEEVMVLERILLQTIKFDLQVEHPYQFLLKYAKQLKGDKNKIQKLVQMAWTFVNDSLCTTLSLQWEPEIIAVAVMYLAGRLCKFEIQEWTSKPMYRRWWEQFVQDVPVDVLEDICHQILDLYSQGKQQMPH
T1 sequence (Q16531 whole entry partner, the tested form may be a part): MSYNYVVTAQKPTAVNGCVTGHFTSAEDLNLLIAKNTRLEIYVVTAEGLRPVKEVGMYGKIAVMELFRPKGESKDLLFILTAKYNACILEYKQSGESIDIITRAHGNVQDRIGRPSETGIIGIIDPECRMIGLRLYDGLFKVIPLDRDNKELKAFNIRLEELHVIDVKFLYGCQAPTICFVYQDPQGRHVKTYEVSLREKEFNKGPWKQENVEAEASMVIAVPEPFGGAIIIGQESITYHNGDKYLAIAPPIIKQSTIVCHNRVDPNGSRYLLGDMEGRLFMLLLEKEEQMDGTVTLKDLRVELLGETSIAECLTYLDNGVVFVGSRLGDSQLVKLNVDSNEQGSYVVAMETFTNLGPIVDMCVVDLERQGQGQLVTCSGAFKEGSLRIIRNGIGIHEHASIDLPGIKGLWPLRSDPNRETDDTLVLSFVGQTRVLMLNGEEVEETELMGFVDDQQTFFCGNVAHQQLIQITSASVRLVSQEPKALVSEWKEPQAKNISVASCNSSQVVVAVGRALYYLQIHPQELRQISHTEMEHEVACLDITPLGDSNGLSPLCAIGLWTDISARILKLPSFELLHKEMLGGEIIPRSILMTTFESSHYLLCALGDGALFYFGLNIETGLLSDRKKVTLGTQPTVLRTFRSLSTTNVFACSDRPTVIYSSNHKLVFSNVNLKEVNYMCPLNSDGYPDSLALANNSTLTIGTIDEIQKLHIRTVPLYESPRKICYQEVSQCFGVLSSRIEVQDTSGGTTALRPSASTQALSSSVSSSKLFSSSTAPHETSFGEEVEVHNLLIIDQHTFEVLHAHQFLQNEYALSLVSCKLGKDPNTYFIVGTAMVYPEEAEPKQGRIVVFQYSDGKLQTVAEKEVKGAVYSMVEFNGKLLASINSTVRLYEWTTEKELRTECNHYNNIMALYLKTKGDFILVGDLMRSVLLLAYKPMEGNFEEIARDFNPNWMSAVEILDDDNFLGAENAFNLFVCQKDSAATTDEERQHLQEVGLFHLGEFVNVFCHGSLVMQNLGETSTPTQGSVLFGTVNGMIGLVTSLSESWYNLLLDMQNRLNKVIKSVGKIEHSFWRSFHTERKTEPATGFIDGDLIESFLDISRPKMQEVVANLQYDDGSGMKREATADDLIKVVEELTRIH
T2 sequence (Q9NYV4 715-1052 G731R limits assumed): as the sequence (Q9NYV4 715-1052 limits assumed, stated change not applied) above, with G17R counted along it
T2 sequence (O75909 11-267 partner limits assumed): as the sequence (O75909 11-267 partner limits assumed) above

For `Cc1cccc(Nc2nc(CC(=O)Nc3ncc(C)s3)cs2)n1` [HQ461, 2-(2-((6-methylpyridin-2-yl)amino)thiazol-4-yl)-N-(5-methylthiazol-2-yl)acetamide], the “CCNK polyubiquitination in cells” value (CCNK) was “increased CCNK polyubiquitination”, the AlphaScreen ([1]; WT + 5 µM THZ531, HQ461 2.22e-6 M) was 1078 and 1062 and 921 and the AlphaScreen ([1]; WT + 5 µM THZ531, HQ461 6.67e-6 M) was 1168 and 926 and 865. The AlphaScreen ([1]; WT + 5 µM THZ531, HQ461 2e-5 M) was 1307 and 1119 and 970, the AlphaScreen ([1]; WT + 5 µM THZ531, HQ461 2.47E-07 M) was 1065 and 1007 and 926 and the AlphaScreen ([1]; WT + 5 µM THZ531, HQ461 2.74E-08 M) was 1128 and 949 and 821. The AlphaScreen ([1]; WT + 5 µM THZ531, HQ461 7.41E-07 M) was 1120 and 993 and 799, the AlphaScreen ([1]; WT + 5 µM THZ531, HQ461 8.23E-08 M) was 1054 and 1033 and 906 and the AlphaScreen ([1]; WT, HQ461 2.22e-6 M) was 11213 and 9188 and 8788. The AlphaScreen ([1]; WT, HQ461 6.67e-6 M) was 16665 and 12816 and 13014, the AlphaScreen ([1]; WT, HQ461 2e-5 M) was 20710 and 15836 and 15276 and the AlphaScreen ([1]; WT, HQ461 2.47E-07 M) was 4781 and 3382 and 3265. The AlphaScreen ([1]; WT, HQ461 2.74E-08 M) was 2625 and 1724 and 1469, the AlphaScreen ([1]; WT, HQ461 7.41E-07 M) was 7377 and 5649 and 5718 and the AlphaScreen ([1]; WT, HQ461 8.23E-08 M) was 2916 and 2037 and 1777. For the same compound, the pEC50 ([1]; WT, read-out: apparent EC50 of CDK12KD/CCNKΔC/DDB1 complex formation) was 5.72, the AlphaScreen ([2]; HQ461 2.22e-6 M) was 1045 and 1023 and 975 and the AlphaScreen ([2]; HQ461 6.67e-6 M) was 1107 and 1087 and 1018. For the same compound, the AlphaScreen ([2]; HQ461 2e-5 M) was 1057 and 1369 and 1206, the AlphaScreen ([2]; HQ461 2.47E-07 M) was 1123 and 959 and 996 and the AlphaScreen ([2]; HQ461 2.74E-08 M) was 1124 and 1117 and 796. For the same compound, the AlphaScreen ([2]; HQ461 7.41E-07 M) was 1008 and 1006 and 1085, the AlphaScreen ([2]; HQ461 8.23E-08 M) was 1162 and 1262 and 828 and the “complex formation with DDB1, G731R mutant” value ([2]; even with 20 µM of HQ461) was “did not form a complex with DDB1”. The pIC50 [3] was 4.44 to 4.60.
